Results on one compound are retold here after patent publication US8987170B2, “Succinimide compound” (Sumitomo Chemical Company, Limited, priority 2013, dated 2015).

What all share (assay type): cell-based
Assay [1] concerns Pythium zingiberis. Kind of assay: Antibacterial test on Pythium zingiberis (Test Example 2), comparison with comparative compound. To be noted: 96 h, 500 ppm in PDA medium, cultured at 27° C. for 4 days, read-out: Mycelium growth inhibition rate (%). As to the method:
A predetermined amount of Compound (1) was dissolved in dimethyl sulfoxide, and the resulting solution was added to a potato dextrose agar medium (PDA medium) so as to have a final concentration of 500 ppm. Separately, an agar piece containing bacteria cut out from the bacterial flora peripheral part of Pythium zingiberis pre-cultured in an additive-free PDA medium was inoculated on the PDA medium containing Compound (1), and cultured at 27° C. for 4 days, and then the mycelium growth inhibition rate was measured by Expression 1. In addition, the test was conducted in the same manner, using N-[7-fluoro-3,4-dihydro-3-oxo-4-(2-propynyl)-2H-1,4-benzoxazin-6-yl]cyclohex-1-ene-1,2-dicarboxamide as a comparative example, in place of Compound (1).

For assay [2], the system named is Pythium zingiberis. The assay can be described thus: Antibacterial test on Pythium zingiberis (Test Example 1), mycelium growth on PDA medium. The note with it: 500 ppm in PDA medium. As to the method:
A predetermined amount of Compound (1) was dissolved in dimethyl sulfoxide, and the resulting solution was added to a potato dextrose agar medium (PDA medium) so as to have a final concentration of 500 ppm. Separately, an agar piece containing bacteria cut out from the bacterial flora peripheral part of Pythium zingiberis pre-cultured in an additive-free PDA medium was inoculated on the PDA medium containing Compound (1), and cultured at 12° C. or 27° C., and then the mycelium growth inhibition rate was measured by the following Expression 1: Mycelium growth inhibition rate(%)=100−(Diameter of bacterial flora in added medium)/(Diameter of bacterial flora in additive-free medium)×100 Expression 1

For assay [3], the system named is Pythium debaryanum. The assay can be described thus: Antibacterial test on Pythium debaryanum, mycelium growth state on PDA medium. The note with it: predetermined concentration in PDA medium; cultured at 27° C. On the procedure: A predetermined amount of Compound (1) was dissolved in dimethyl sulfoxide, and the resulting solution was added to a potato dextrose agar medium (PDA medium) so as to have a final concentration of predetermined concentration. Separately, an agar piece containing bacteria cut out from the bacterial flora peripheral part of Pythium debaryanum pre-cultured in an additive-free PDA medium was inoculated on the PDA medium containing Compound (1), and cultured at 27° C., and then the mycelium growth state was observed.

Consider `C#CCN1C(=O)COc2cc(F)c(N3C(=O)C4CC=CCC4C3=O)cc21` (stereo not shown) [Compound (1), N-[7-fluoro-3,4-dihydro-3-oxo-4-(2-propynyl)-2H-1,4-benzoxazin-6-yl]cyclohex-4-ene-1,2-dicarboxamide], for which the inhibition at 500 ppm came to 50% in assay [1]; 53% in assay [2] (24 h, culture temperature 27° C., observation Day 1, read-out: Mycelium growth inhibition rate (%)); 100% in assay [2] (96 h, culture temperature 12° C., observation Day 4, read-out: Mycelium growth inhibition rate (%)). Moreover, the “effect of controlling Pythium debaryanum (mycelium growth state observed)” value in assay [3] is “has an effect of controlling Pythium debaryanum”.

The inhibition is the drop in the measured response relative to a control, in per cent.
